Data as given in US20230295087A1, “AGONISTS OF ROR GAMMAt” (BRISTOL-MYERS SQUIBB COMPANY, priority 2019, published 2023).

Target: T1, human RORgT (Homo sapiens, UniProt P51449)
T1 construct: expressed in transfected cells
T1 sequence (P51449 267-516): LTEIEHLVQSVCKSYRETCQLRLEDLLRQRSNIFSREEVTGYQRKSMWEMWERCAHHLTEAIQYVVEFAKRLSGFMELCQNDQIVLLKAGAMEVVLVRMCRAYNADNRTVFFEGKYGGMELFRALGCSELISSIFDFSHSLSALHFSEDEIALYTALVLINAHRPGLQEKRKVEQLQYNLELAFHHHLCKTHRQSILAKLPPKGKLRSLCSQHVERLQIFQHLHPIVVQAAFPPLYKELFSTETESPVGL
Assay: RORgT Gal4 Luciferase Reporter Gene Assay
Type: cell-based
Details: engineered Jurkat cells overexpressing RORgT (LBD or full length) fused with Gal4 Luc reporter; 18 hours at 37° C.; luminescence
Experimental: RORgT Gal4 Luciferase Reporter Gene Assay
25 µL of cryopreserved Jurkat cells over expressing ligand binding domain (LBD) of RORgT (aa267-516, NM_005060) and Gal4 Luc, or full length of human RORgT and Gal4 Luc, were plated in 384-well solid white cell culture plates (PerkinElmer 6007899), with a density of 10,000 cells/well in RPMI 1640 cell culture media (Gibco 11875-085). The media contained 0.1% BSA, 10 mM HEPES (Gibco 15360-080), […] Sodium Pyruvate (Gibco 11360-040), […] Hygromycin B (Invitrogen 10687-010), and […] Blasticidin (Invitrogen R210-01).
100 nL of compound at varying concentrations in 3-fold serial dilution, with final concentrations ranging from 40 µM to 0.67 nM, were added to the cells using Labcyte Echo 550. The compound and the cells were incubated for 18 hours at 37° C. in a cell culture incubator. Cells were then lysed with 15 uL of Steady-Glo Luciferase Assay reagent (Promega EZ550), followed by centrifuging the assay plates at 1500 RPM for 1 minute. Subsequently, the plates were read on the Envision (PerkinElmer). The inhibition of constitutive activity of RORgT achieved by graded concentrations of compound was calculated as a percentage of the luminescence signal window reduction over a control compound.

| Structure (SMILES) | EC50 [nM] |
| --- | --- |
| C[C@@H]1C[C@@H](C(=O)O)CC[C@@H]1C(=O)N1CC[C@@]2(S(=O)(=O)c3ccc(F)cc3)c3ccc(OCc4c(F)cccc4C(F)(F)F)cc3CC[C@@H]12 [Example 26, (1S,3R,4S)-4-[(3aR,9bR)-7-{[2-fluoro-6-(trifluoromethyl)phenyl]methoxy}-9b-(4-fluorobenzenesulfonyl)-1H,2H,3H,3aH,4H,5H,9bH-benzo[e]indole-3-carbonyl]-3-methylcyclohexane-1-carboxylic acid] | 27 |
| O=C(O)[C@H]1CC[C@](O)(C(=O)N2CC[C@@]3(S(=O)(=O)c4ccc(F)cc4)c4ccc(OCc5c(F)cccc5C(F)(F)F)cc4CC[C@@H]23)CC1 [Example 27, (1 s,4 s)-4-[(3aR,9bR)-7-{ [2-fluoro-6-(trifluoromethyl)phenyl]methoxy} -9b-(4-fluorobenzenesulfonyl)-1H,2H,3H,3aH,4H,5H,9bH-benzo[e]indole-3-carbonyl] -4-hydroxycyclohexane-1-carboxylic acid] | 99 |
| O=C1CC[C@@H](C(=O)N2CC[C@@]3(S(=O)(=O)c4ccc(F)cc4)c4ccc(OCc5c(F)cccc5C(F)(F)F)cc4CC[C@@H]23)N1Cc1ccc(F)cc1 [Example 28, (5S)-5-[(3aR,9bR)-7-{[2-fluoro-6-(trifluoromethyl)phenyl]methoxy} -9b-(4-fluorobenzenesulfonyl)-1H,2H,3H,3aH,4H,5H,9bH-benzo[e]indole-3-carbonyl]-1-[(4-fluorophenyl)methyl]pyrrolidin-2-one] | 8.2 |
| CC(C#N)CN1C(=O)CC[C@H]1C(=O)N1CC[C@@]2(S(=O)(=O)c3ccc(F)cc3)c3ccc(OCc4c(F)cccc4C(F)(F)F)cc3CC[C@@H]12 (stereo partly drawn) [Example 29, 3-[(2S)-2-[(3aR,9bR)-7-{[2-fluoro-6-(trifluoromethyl)phenyl]methoxy} -9b-(4-fluorobenzenesulfonyl)-1H,2H,3H,3aH,4H,5H9bH-benzo[e]indole-3-carbonyl]-5-oxopyrrolidin-1-yl]-2-methylpropanenitrile] | 3.6 |
| CN1C[C@@H](C(=O)N2CC[C@@]3(S(=O)(=O)c4ccc(F)cc4)c4ccc(OCc5c(F)cccc5C(F)(F)F)cc4CC[C@@H]23)NC1=O [Example 30, (4S)-4-[(3aR,9bR)-7-{[2-fluoro-6-(trifluoromethyl)phenyl]methoxy} -9b-(4-fluorobenzenesulfonyl)-1H,2H,3H,3aH,4H,5H,9bH-benzo[e]indole-3-carbonyl]-1-methylimidazolidin-2-one] | 3.9 |
| O=C(C1CCS(=O)(=O)CC1)N1CC[C@@]2(S(=O)(=O)c3ccc(F)cc3)c3ccc(Cc4ccccc4)cc3CC[C@@H]12 [Example 31, 4-[(3aR,9bR)-7-benzyl-9b-(4-fluorobenzenesulfonyl)-1H,2H,3H,3aH,4H,5H,9bH-benzo[e]indole-3-carbonyl]-1λ^6-thiane-1,1-dione] | 1.6 |
| O=C(C1CCS(=O)(=O)CC1)N1CC[C@@]2(S(=O)(=O)c3ccc(F)cc3)c3ccc(Cc4c(F)cccc4Cl)cc3CC[C@@H]12 [Example 32, 4-[(3aR,9bR)-7-[(2-chloro-6-fluorophenyl)methyl]-9b-(4-fluorobenzenesulfonyl)-1H,2H,3H,3aH,4H,5H,9bH-benzo[e]indole-3-carbonyl]-1λ^6-thiane-1,1-dione] | 1.8 |
| O=C(C1CCS(=O)(=O)CC1)N1CC[C@@]2(S(=O)(=O)c3ccc(F)cc3)c3ccc(COc4c(F)cccc4Cl)cc3CC[C@@H]12 [Example 33, 4-[(3aR,9bR)-7-[(2-chloro-6-fluorophenoxy)methyl]-9b-(4-fluorobenzenesulfonyl)-1H,2H,3H,3aH,4H,5H,9bH-benzo[e]indole-3-carbonyl]-1λ^6-thiane-1,1-dione] | 10 |
| O=C(O)[C@H]1CC[C@H](C(=O)N2CC[C@@]3(S(=O)(=O)c4ccc(F)cc4)c4ccc(Cc5ccccc5)cc4CC[C@@H]23)CC1 [Example 34, (1r,4r)-4-[(3aR,9bR)-7-benzyl-9b-(4-fluorobenzenesulfonyl)-1H,2H,3H,3aH,4H,5H,9bH-benzo[e]indole-3-carbonyl]cyclohexane-1-carboxylic acid] | 10 |
| O=C(C1CCS(=O)(=O)CC1)N1CC[C@@]2(S(=O)(=O)c3ccc(F)cc3)c3ccc(Oc4ccccc4)cc3CC[C@@H]12 [Example 36] | 4.1 |
| O=C(O)[C@H]1CC[C@H](C(=O)N2CC[C@@]3(S(=O)(=O)c4ccc(F)cc4)c4ccc(Oc5c(F)cccc5Cl)cc4CC[C@@H]23)CC1 [Example 37, (1r,4r)-4-[(3aR,9bR)-7-(2-chloro-6-fluorophenoxy)-9b-(4-fluorobenzenesulfonyl)-1H,2H,3H,3aH,4H,5H,9bH-benzo[e]indole-3-carbonyl]cyclohexane-1-carboxylic acid] | 3.3 |

More lines, now with the values ahead:

| EC50 [nM] | Structure (SMILES) |
| --- | --- |
| 1.1 | O=C(C1CCS(=O)(=O)CC1)N1CC[C@@]2(S(=O)(=O)c3ccc(F)cc3)c3ccc(Oc4c(F)cccc4Cl)cc3CC[C@@H]12 [Example 38, 4-[(3aR,9bR)-7-(2-chloro-6-fluorophenoxy)-9b-(4-fluorobenzenesulfonyl)-1H,2H,3H,3aH,4H,5H,9bH-benzo[e]indole-3-carbonyl]-1λ^6-thiane-1,1-dione] |
| 2.7 | O=C(C1CCS(=O)(=O)CC1)N1CC[C@@]2(S(=O)(=O)c3ccc(F)cc3)c3ccc(Oc4c(F)cccc4C(F)(F)F)cc3CC[C@@H]12 [Example 39, 4-[(3aR,9bR)-7-[2-fluoro-6-(trifluoromethyl)phenoxy]-9b-(4-fluorobenzenesulfonyl)-1H,2H,3H,3aH,4H,5H,9bH-benzo[e]indole-3-carbonyl]-1λ^6-thiane-1,1-dione] |
| 5.2 | O=C(O)[C@H]1CC[C@H](C(=O)N2CC[C@@]3(S(=O)(=O)c4ccc(F)cc4)c4ccc(Cc5ccc(F)cc5)cc4CC[C@@H]23)CC1 [Example 40, (1r,4r)-4-[(3aR,9bR)-9b-(4-fluorobenzenesulfonyl)-7-[(4-fluorophenyl)methyl]-1H,2H,3H,3aH,4H,5H,9bH-benzo[e]indole-3-carbonyl]cyclohexane-1-carboxylic acid] |
| 1.2 | O=C(C1CCS(=O)(=O)CC1)N1CC[C@@]2(S(=O)(=O)c3ccc(F)cc3)c3ccc(Cc4ccc(F)cc4)cc3CC[C@@H]12 [Example 41, 4-[(3aR,9bR)-9b-(4-fluorobenzenesulfonyl)-7-[(4-fluorophenyl)methyl]-1H,2H,3H,3aH,4H,5H,9bH-benzo[e]indole-3-carbonyl]-1λ^6-thiane-1,1-dione] |
| 1.8 | O=C(C1CCS(=O)(=O)CC1)N1CC[C@@]2(S(=O)(=O)c3ccc(F)cc3)c3ccc(Cc4ccc(Cl)cc4)cc3CC[C@@H]12 [Example 42, 4-[(3aR,9bR)-7-[(4-chlorophenyl)methyl]-9b-(4-fluorobenzenesulfonyl)-1H,2H,3H,3aH,4H,5H,9bH-benzo[e]indole-3-carbonyl]-1λ^6-thiane-1,1-dione] |
| 2.7 | Cc1ccccc1Cc1ccc2c(c1)CC[C@H]1N(C(=O)[C@H]3CC[C@H](C(=O)O)CC3)CC[C@@]21S(=O)(=O)c1ccc(F)cc1 [Example 43, (1r,4r)-4-[(3aR,9bR)-9b-(4-fluorobenzenesulfonyl)-7-[(2-methylphenyl)methyl]-1H,2H,3H,3aH,4H,5H,9bH-benzo[e]indole-3-carbonyl]cyclohexane-1-carboxylic acid] |
| 1.9 | Cc1ccccc1Cc1ccc2c(c1)CC[C@H]1N(C(=O)C3CCS(=O)(=O)CC3)CC[C@@]21S(=O)(=O)c1ccc(F)cc1 [Example 44, 4-[(3aR,9bR)-9b-(4-fluorobenzenesulfonyl)-7-[(2-methylphenyl)methyl]-1H,2H,3H,3aH,4H,5H,9bH-benzo[e]indole-3-carbonyl]-1λ^6-thiane-1,1-dione] |
| 306 | CC1(CN2CC[C@@]3(S(=O)(=O)c4ccc(F)cc4)c4ccc(OCc5c(F)cccc5C(F)(F)F)cc4CC[C@@H]23)CCNCC1 [Example 45, 4-{ [(3aR,9bR)-7-{ [2-fluoro-6-(trifluoromethyl)phenyl]methoxy} -9b-(4-fluorobenzenesulfonyl)-1H,2H,3H,3aH,4H,5H,9bH-benzo[e]indol-3-yl]methyl}-4-methylpiperidine] |
| 2.7 | Cc1ccccc1Cc1ccc2c(c1)CC[C@H]1N(C(=O)C3(C)CCS(=O)(=O)CC3)CC[C@@]21S(=O)(=O)c1ccc(F)cc1 [Example 46, 4-[(3aR,9bR)-9b-(4-fluorobenzenesulfonyl)-7-[(2-methylphenyl)methyl]-1H,2H,3H,3aH,4H,5H,9bH-benzo[e]indole-3-carbonyl]-4-methyl-1λ^6-thiane-1,1-dione] |
| 4.4 | Cc1ccccc1Cc1ccc2c(c1)CC[C@H]1N(C(=O)CC3CCS(=O)(=O)C3)CC[C@@]21S(=O)(=O)c1ccc(F)cc1 (stereo partly drawn) [Example 47, 3-{2-[(3aR,9bR)-9b-(4-fluorobenzenesulfonyl)-7-[(2-methylphenyl)methyl]-1H,2H,3H,3aH,4H,5H,9bH-benzo[e]indol-3-yl]-2-oxoethyl}-1λ^6-thiolane-1,1-dione] |
